Reference: patent publication US20230203043A1, “NOVEL IMIDAZOPYRAZINE DERIVATIVES” (Hoffmann-La Roche Inc., priority 2020, published 2023)
Structures can show the parent of a compound that is named as a salt.

System: Acinetobacter baumannii ATCC17961
Assay: Antimicrobial susceptibility testing: 90% growth inhibitory concentration (IC90) determination in Iso-Sensitest broth, OD600 growth
Format: cell-based
Settings: Acinetobacter baumannii, ATCC17961, 16 h, read-out: A. baumannii ATCC 17961 IC90 (uM), strain ATCC 17961, OD600 growth over 16 h
Method: Antimicrobial Susceptibility Testing:
90% Growth Inhibitory Concentration (IC90) Determination
The in vitro antimicrobial activity of the compounds was determined according to the following procedure:
The assay used a 10-points Iso-Sensitest broth medium to measure quantitatively the in vitro activity of the compounds against Acinetobacter baumannii ATCC17961 or ATCC17968.
Stock compounds in DMSO were serially twofold diluted (e.g. range from 50 to 0.097 μM final concentration) in 384 wells microtiter plates and inoculated with 49 μl the bacterial suspension in Iso-Sensitest medium to have a final cell concentration of ˜5×10^(5) CFU/ml in a final volume/well of 50 ul/well. Microtiter plates were incubated at 35±2° C.
Bacterial cell growth was determined with the measurement of optical density at λ=600 nm each 20 minutes over a time course of 16 h. Growth inhibition was calculated during the logarithmic growth of the bacterial cells with determination of the concentration inhibiting 50% (IC50) and 90% (IC90) of the growth.
Table 7 provides the 90% growth inhibitory concentrations (IC90) in micromoles per liter of the compounds of present invention obtained against the strain Acinetobacter baumannii ATCC17961 and/or ATCC17968.

Compound	IC90
CCc1cc(Nc2nccn3c(-c4cn(Cc5cccnc5)nc4C(F)(F)F)cnc23)ccc1C(=O)NCCCNCCCCNCCCN [Example 7, N-[3-[4-(3-aminopropylamino)butylamino]propyl]-2-ethyl-4-[[3-[1-(pyridin-3-ylmethyl)-3-(trifluoromethyl)pyrazol-4-yl]imidazo[1,2-a]pyrazin-8-yl]amino]benzamide hydrochloride]	0.782 µM

Same assay, conditions: Acinetobacter baumannii, ATCC17961, 16 h, strain ATCC 17961, OD600 growth over 16 h, read-out: A. baumannii ATCC 17961 IC90

Compound	IC90
C#CC(C)n1cc(-c2cnc3c(Nc4ccc(C(=O)N5CCN(C(=O)[C@H](N)C(C)C)CC5)c(CC)c4)nccn23)c(C(F)F)n1 (mixture of isomers) [Example 799, (2R)-2-amino-1-(4-(4-((3-(1-(but-3-yn-2-yl)-3-(difluoromethyl)-1H-pyrazol-4-yl)imidazo [1,2-a]pyrazin-8-yl)amino)-2-ethylbenzoyl)piperazin-1-yl)-3-methylbutan-1-one (mixture of epimers)]	2.74 µM
O=C(c1ccc(Nc2nccn3c(-c4c[nH]nc4C(F)(F)F)cnc23)cc1Cl)N1CCN(C(=O)[C@H]2CNC[C@H](O)C2)CC1 (racemic) [Example 353, [2-chloro-4-[[3-[3-(trifluoromethyl)-1H-pyrazol-4-yl]imidazo[1,2-a]pyrazin-8-yl]amino]phenyl]-[4-[rac-(3R,5R)-5-hydroxypiperidine-3-carbonyl]piperazin-1-yl]methanone]	0.241 µM
O=C(NC1CCC(NC(=O)[C@H]2C[C@H](O)CN2)C1)c1ccc(Nc2nccn3c(-c4c[nH]nc4C(F)(F)F)cnc23)cc1Cl (mixture of isomers) [Example 373, rac-(2R,4S)-N-[3-[[2-chloro-4-[[3-[3-(trifluoromethyl)-1H-pyrazol-4-yl]imidazo[1,2-a]pyrazin-8-yl]amino]benzoyl]amino]cyclopentyl]-4-hydroxypyrrolidine-2-carboxamide]	1.11 µM
O=C(NC1CCCN(C(=O)[C@H]2C[C@H](O)CN2)C1)c1ccc(Nc2nccn3c(-c4c[nH]nc4C(F)(F)F)cnc23)cc1Cl (mixture of isomers) [Example 387, 2-chloro-N-[1-[rac-(2R,4S)-4-hydroxypyrrolidine-2-carbonyl]piperidine-3-yl]-4-[[3-[3-(trifluoromethyl)-1H-pyrazol-4-yl]imidazo[1,2-a]pyrazin-8-yl]amino]benzamide]	4.84 µM
N[C@@H]1CC[C@@H](NC(=O)c2ccc(Nc3nccn4c(-c5c[nH]nc5C(F)(F)F)cnc34)cc2Cl)C1 (racemic) [Example 407, 2-chloro-N-[rac-(1R,3R)-3-aminocyclopentyl]-4-[[3-[3-(trifluoromethyl)-1H-pyrazol-4-yl]imidazo[1,2-a]pyrazin-8-yl]amino]benzamide]	2.96 µM
Cc1cc(Nc2nccn3c(-c4c[nH]nc4C(F)(F)F)cnc23)ccc1C(=O)N1CCN(C(=O)[C@H]2CNC[C@H](O)C2)CC1 (racemic) [Example 439, [2-methyl-4-[[3-[3-(trifluoromethyl)-1H-pyrazol-4-yl]imidazo[1,2-a]pyrazin-8-yl]amino]phenyl]-[4-[rac-(3R,5R)-5-hydroxypiperidine-3-carbonyl]piperazin-1-yl]methanone hydrochloride]	0.834 µM
Cc1cc(Nc2nccn3c(-c4c[nH]nc4C(F)(F)F)cnc23)ccc1C(=O)N1CCN(C(=O)[C@@H]2CNCC[C@H]2O)CC1 (racemic) [Example 467, [2-methyl-4-[[3-[3-(trifluoromethyl)-1H-pyrazol-4-yl]imidazo[1,2-a]pyrazin-8-yl]amino]phenyl]-[4-[rac-(3R,4R)-4-hydroxypiperidine-3-carbonyl]piperazin-1-yl]methanone hydrochloride]	1.42 µM
Cc1cc(Nc2nccn3c(-c4c[nH]nc4C(F)(F)F)cnc23)ccc1C(=O)N1CCN(C(=O)[C@@H]2CNCC[C@@H]2O)CC1 (racemic) [Example 468, [2-methyl-4-[[3-[3-(trifluoromethyl)-1H-pyrazol-4-yl]imidazo[1,2-a]pyrazin-8-yl]amino]phenyl]-[4-[rac-(3R,4S)-4-hydroxypiperidine-3-carbonyl]piperazin-1-yl]methanone hydrochloride]	1.43 µM
C#CC(C)n1cc(-c2cnc3c(Nc4ccc(C(=O)N5CCN(C(=O)C(C)N)CC5)c(CC)c4)nccn23)c(C(F)F)n1 (stereo in doubt) [Example 784, (2R)-2-amino-1-(4-(4-((3-(1-(but-3-yn-2-yl)-3-(difluoromethyl)-1H-pyrazol-4-yl)imidazo [1,2-a]pyrazin-8-yl)amino)-2-ethylbenzoyl)piperazin-1-yl)propan-1-one (mixture of epimers)]	1.24 µM
C#CC(C)n1cc(-c2cnc3c(Nc4ccc(C(=O)N5CCN(C(=O)[C@H]6C[C@H](O)CN6)CC5)c(CC)c4)nccn23)c(C(F)F)n1 (stereo in doubt) [Example 787, (4-(4-((3-(1-(but-3-yn-2-yl)-3-(difluoromethyl)-1H-pyrazol-4-yl)imidazo[1,2-a]pyrazin-8-yl)amino)-2-ethylbenzoyl)piperazin-1-yl)((2R,4S)-4-hydroxypyrrolidin-2-yl)methanone (mixture of epimers)]	1.57 µM
CCc1cc(Nc2nccn3c(-c4cn(Cc5ccncn5)nc4C(F)(F)F)cnc23)ccc1C(=O)NCCOCCN [Example 2, N-[2-(2-aminoethoxy)ethyl]-2-ethyl-4-[[3-[1-(pyrimidin-4-ylmethyl)-3-(trifluoromethyl)pyrazol-4-yl]imidazo[1,2-a]pyrazin-8-yl]amino]benzamide]	0.513 µM
CCc1cc(Nc2nccn3c(-c4cn(CC#N)nc4C(F)(F)F)cnc23)ccc1C(=O)NCCNC(=O)[C@@H]1CCCN1 [Example 3, (2S)—N-[2-[[4-[[3-[1-(cyanomethyl)-3-(trifluoromethyl)pyrazol-4-yl]imidazo[1,2-a]pyrazin-8-yl]amino]-2-ethylbenzoyl]amino]ethyl]pyrrolidine-2-carboxamide]	0.16 µM
C#CCNC(=O)c1c(C)cc(Nc2nccn3c(-c4cn(CC#N)nc4C(F)(F)F)cnc23)cc1F [Example 4, 4-[[3-[1-(cyanomethyl)-3-(trifluoromethyl)pyrazol-4-yl]imidazo[1,2-a]pyrazin-8-yl]amino]-2-fluoro-6-methyl-N-prop-2-ynylbenzamide]	0.132 µM
C#CCn1cc(-c2cnc3c(Nc4ccc(C(=O)N5CCN(C(=O)C6CCNCC6)CC5)c(CC)c4)nccn23)c(C(F)(F)F)n1 [Example 5, [2-ethyl-4-[[3-[1-prop-2-ynyl-3-(trifluoromethyl)pyrazol-4-yl]imidazo[1,2-a]pyrazin-8-yl]amino]phenyl]-[4-(piperidine-4-carbonyl)piperazin-1-yl]methanone]	0.262 µM
NCC(=O)N1CCN(C(=O)c2ccc(Nc3nccn4c(-c5cn(CC(F)F)nc5C(F)(F)F)cnc34)cc2Cl)CC1 [Example 6, 2-amino-1-[4-[2-chloro-4-[[3-[1-(2,2-difluoroethyl)-3-(trifluoromethyl)pyrazol-4-yl]imidazo[1,2-a]pyrazin-8-yl]amino]benzoyl]piperazin-1-yl]ethanone]	0.159 µM
NCCNC(=O)CNC(=O)c1ccc(Nc2nccn3c(-c4cn(CCF)nc4C(F)(F)F)cnc23)cc1Cl [Example 8, N-[2-(2-aminoethylamino)-2-oxoethyl]-2-chloro-4-[[3-[1-(2-fluoroethyl)-3-(trifluoromethyl)pyrazol-4-yl]imidazo[1,2-a]pyrazin-8-yl]amino]benzamide formate]	0.484 µM
O=C(c1ccc(N(c2nccn3c(-c4c[nH]nc4C(F)(F)F)cnc23)C(F)F)cc1Cl)N1CCNCC1 [Example 9, [2-chloro-4-[difluoromethyl-[3-[3-(trifluoromethyl)-1H-pyrazol-4-yl]imidazo[1,2-a]pyrazin-8-yl]amino]phenyl]-piperazin-1-ylmethanone]	1.05 µM
CNC(=O)c1ccc(Nc2nccn3c(-c4cn(C(F)F)nc4C(F)(F)F)cnc23)cc1Cl [Example 10, 2-chloro-4-[[3-[1-(difluoromethyl)-3-(trifluoromethyl)pyrazol-4-yl]imidazo[1,2-a]pyrazin-8-yl]amino]-N-methylbenzamide]	0.458 µM
N#CCn1cc(-c2cnc3c(Nc4ccc(C(=O)N5CCC(NC(=O)N[C@H]6CCNC6)CC5)c(Cl)c4)nccn23)c(C(F)(F)F)n1 [Example 11, 1-[1-[2-chloro-4-[[3-[1-(cyanomethyl)-3-(trifluoromethyl)pyrazol-4-yl]imidazo[1,2-a]pyrazin-8-yl]amino]benzoyl]piperidin-4-yl]-3-[(3S)-pyrrolidin-3-yl]urea]	0.204 µM

Same assay, conditions: strain ATCC 17961, OD600 growth over 16 h, read-out: A. baumannii ATCC 17961 IC90

Compound	IC90
4-[2-chloro-4- [[3-[1-(2- cyanoethyl)-3- pyrazol-4- yl]imidazo[1,2- a]pyrazin-8- yl]amino]benzoyl]- N-[(3R)- pyrrolidin-3- yl]piperazine-1- carboxamide formate [Example 261]	0.521 µM
4-[[3-[1-(2-cyanomethyl)-3-(trifluoromethyl)pyrazol-4-yl]imidazo[1,2-a]pyrazin-8-yl]amino]-2-ethyl-N-methylbenzamide [Example 337]	0.359 µM
C=CCn1cc(-c2cnc3c(Nc4ccc(C(=O)NCCOCC(C)N)c(CC)c4)nccn23)c(C(F)(F)F)n1 (stereo in doubt) [Example 146, N-[2-[(2S)-2-aminopropoxy]ethyl]-2-ethyl-4-[[3-[1-prop-2-enyl-3-(trifluoromethyl)pyrazol-4-yl]imidazo[1,2-a]pyrazin-8-yl]amino]benzamide]	0.028 µM
